Values joined by “and” are separate entries in the source; they are usually repeats but may differ in a detail not shown here. Equal values may be shown once.
What was measured:
[1] = biological target: T1, Peptidyl-prolyl cis-trans isomerase A (Homo sapiens, UniProt P62937); test: ESI-MS Assay
Excerpt: Electrospray mass spectrometry assay is a immunophilin-ligand binding assay which allows us to rapidly probe the affinity of potential inhibitors for CypA which rely on the use of soft-ESI conditions to preserve noncovalent interactions between protein and ligand.

[2] = biological target: T1, Peptidyl-prolyl cis-trans isomerase A; test: PPIase Assay
Excerpt: The promising ligand from the results obtained from ESI-MS assay are subjected to PPIase in vitro assay. The PPIase assay assesses the abil9ity of ligands to inhibit the PPIase activity of CypA.

[3] = biological target: T1, Peptidyl-prolyl cis-trans isomerase A; test: Fluorescence Assay
Excerpt: The promising ligand from the results obtained from ESI-MS assay are subjected to fluorescence in vitro assay. The fluorescence assay takes advantage of the presence of a single tryptophan residue (Trp121) located close to the active site of CypA.

T1 sequence (P62937 whole entry): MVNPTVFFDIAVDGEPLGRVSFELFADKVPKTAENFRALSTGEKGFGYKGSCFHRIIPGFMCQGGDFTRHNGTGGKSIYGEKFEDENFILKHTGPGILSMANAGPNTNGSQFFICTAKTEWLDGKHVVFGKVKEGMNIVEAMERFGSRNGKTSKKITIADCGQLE

Kd [1] | Ki [2] | Kd [3] | SMILES
128 µM | > 100 µM | 22.8 µM | COC(=O)[C@H](CCCCNC(=O)OCc1ccccc1)C1C(=O)CC2C1=CC(=O)CC2(C)C (some centres undefined) [Cyclophilin Inhibitor, 3a]
85.1 µM | > 100 µM |  | COC(=O)[C@H](CCCCNC(C)=O)C1C(=O)CC2C1=CC(=O)CC2(C)C (some centres undefined) [Cyclophilin Inhibitor, 3d]
113 µM | 207 µM | 21.9 µM | COC(=O)[C@H](CCCCNS(=O)(=O)c1cccc2c(N(C)C)cccc12)C1C(=O)CC2C1=CC(=O)CC2(C)C (some centres undefined) [Cyclophilin Inhibitor, 3e]
133 µM |  |  | COC(=O)[C@H](CCCCNS(=O)(=O)c1cccc2c(N(C)C)cccc12)C1C(=O)C[C@@H]2C1=CC(=O)CC2(C)C (some centres undefined) [Cyclophilin Inhibitor, 3f]
72.6 µM |  | 15.9 µM and > 50 µM | COC(=O)[C@H](CCCCN)C1C(=O)CC2C1=CC(=O)CC2(C)C (some centres undefined) [Cyclophilin Inhibitor, 15]

SMILES | Kd [1] | Ki [2] | Kd [3]
COC(=O)[C@H](CCCN=C(N)N[N+](=O)[O-])C1C(=O)CC2C1=CC(=O)CC2(C)C (some centres undefined) [Cyclophilin Inhibitor, 3c] | 31.9 µM | > 100 µM | 29.6 µM
